Reference: ChEMBL document CHEMBL1137006, “Optimization of the central linker of dicationic bis-benzimidazole anti-MRSA and anti-VRE agents” (2009)
≈ marks a conversion by molar mass, not a printed value.

What was measured:
Assay type in all cases: functional
Staphylococcus aureus [1] = experiment: Antibacterial activity against Staphylococcus aureus ATCC 29213 by NCCLS method
Staphylococcus aureus [2] = experiment: Antibacterial activity against multi-drug resistant Staphylococcus aureus BAA-39 by NCCLS method
Staphylococcus aureus [3] = experiment: Antibacterial activity against methicillin-resistan Staphylococcus aureus ATCC 33591 by NCCLS method
[4] = test system: Staphylococcus epidermidis; experiment: Antibacterial activity against Staphylococcus epidermidis ATCC 12228 by NCCLS method
[5] = test system: Staphylococcus epidermidis; experiment: Antibacterial activity against methicillin-resistan Staphylococcus epidermidis ATCC 51625 by NCCLS method
Streptococcus pneumoniae = experiment: Antibacterial activity against Streptococcus pneumoniae ATCC 6301 by NCCLS method
Enterococcus faecalis = experiment: Antibacterial activity against vancomycin-resistant Enterococcus faecalis ATCC 51575 by NCCLS method
Enterococcus faecium = experiment: Antibacterial activity against vancomycin-resistant Enterococcus faecium ATCC 700221 by NCCLS method
Bacillus subtilis = experiment: Antibacterial activity against Bacillus subtilis ATCC 23857 by NCCLS method
Bacillus cereus = experiment: Antibacterial activity against Bacillus cereus ATCC 11778 by NCCLS method
Bacteroides fragilis = experiment: Antibacterial activity against Bacteroides fragilis ATCC 23745 by NCCLS method
Clostridium perfringens = experiment: Antibacterial activity against Clostridium perfringens ATCC 10388 by NCCLS method

Compound | MIC (Staphylococcus aureus [1]) [mg/L] | MIC (Staphylococcus aureus [2]) [mg/L] | MIC (Staphylococcus aureus [3]) [mg/L] | MIC [4] [mg/L] | MIC [5] [mg/L] | MIC (Streptococcus pneumoniae) [mg/L] | MIC (Enterococcus faecalis) [mg/L] | MIC (Enterococcus faecium) [mg/L] | MIC (Bacillus subtilis) [mg/L] | MIC (Bacillus cereus) [mg/L] | MIC (Bacteroides fragilis) [mg/L] | MIC (Clostridium perfringens) [mg/L]
CC(C)NC(=N)c1ccc2[nH]c(-c3ccc(-c4ccc(-c5ccc(-c6nc7cc(C(=N)NC(C)C)ccc7[nH]6)cc5)o4)cc3)nc2c1 | > 32 | 32 (≈ 51.5 µM) | 2 (≈ 3.22 µM) | 4 (≈ 6.44 µM) | 2 (≈ 3.22 µM) | 0.12 (≈ 0.193 µM) | > 32 | 2 (≈ 3.22 µM) | 2 (≈ 3.22 µM) | 2 (≈ 3.22 µM) | > 32 | 1 (≈ 1.61 µM)
CC(C)NC(=N)c1ccc2[nH]c(-c3ccc(C#Cc4ccc(-c5nc6cc(C(=N)NC(C)C)ccc6[nH]5)cc4)cc3)nc2c1 | 2 (≈ 3.46 µM) | 4 (≈ 6.91 µM) | 2 (≈ 3.46 µM) | 0.12 (≈ 0.207 µM) | 0.25 (≈ 0.432 µM) | – | 32 (≈ 55.3 µM) | 0.5 (≈ 0.864 µM) | 4 (≈ 6.91 µM) | 0.5 (≈ 0.864 µM) | > 32 | 4 (≈ 6.91 µM)
CC(C)NC(=N)c1ccc2[nH]c(-c3ccc(Oc4ccc(-c5nc6cc(C(=N)NC(C)C)ccc6[nH]5)cc4)cc3)nc2c1 | 0.25 (≈ 0.438 µM) | 0.5 (≈ 0.876 µM) | 0.12 (≈ 0.21 µM) | < 0.06 | < 0.06 | < 0.06 | 0.12 (≈ 0.21 µM) | < 0.06 | < 0.06 | < 0.06 | 2 (≈ 3.5 µM) | 0.5 (≈ 0.876 µM)
CC(C)NC(=N)c1ccc2[nH]c(-c3ccc(N(c4ccccc4)c4ccc(-c5nc6cc(C(=N)NC(C)C)ccc6[nH]5)cc4)cc3)nc2c1 | 1 (≈ 1.55 µM) | 0.5 (≈ 0.774 µM) | 0.5 (≈ 0.774 µM) | 0.25 (≈ 0.387 µM) | 0.25 (≈ 0.387 µM) | 0.12 (≈ 0.186 µM) | 0.5 (≈ 0.774 µM) | 0.12 (≈ 0.186 µM) | ≤ 0.06 | 0.12 (≈ 0.186 µM) | 4 (≈ 6.19 µM) | 1 (≈ 1.55 µM)
CC(C)NC(=N)c1ccc2[nH]c(-c3ccc(Nc4ccc(-c5nc6cc(C(=N)NC(C)C)ccc6[nH]5)cc4)cc3)nc2c1 | 0.25 (≈ 0.439 µM) | 0.25 (≈ 0.439 µM) | 0.25 (≈ 0.439 µM) | 0.12 (≈ 0.211 µM) | 0.25 (≈ 0.439 µM) | 0.12 (≈ 0.211 µM) | 0.25 (≈ 0.439 µM) | 0.12 (≈ 0.211 µM) | 0.12 (≈ 0.211 µM) | 0.12 (≈ 0.211 µM) | > 32 | 2 (≈ 3.51 µM)
CC(C)NC(=N)c1ccc2[nH]c(-c3ccc(N(C)c4ccc(-c5nc6cc(C(=N)NC(C)C)ccc6[nH]5)cc4)cc3)nc2c1 | 1 (≈ 1.71 µM) | 0.5 (≈ 0.857 µM) | 0.5 (≈ 0.857 µM) | 0.12 (≈ 0.206 µM) | 0.12 (≈ 0.206 µM) | 0.12 (≈ 0.206 µM) | 0.25 (≈ 0.428 µM) | ≤ 0.06 | 0.12 (≈ 0.206 µM) | 0.25 (≈ 0.428 µM) | > 32 | 1 (≈ 1.71 µM)
CC(C)NC(=N)c1ccc2[nH]c(-c3ccc(/C=C/c4ccc(-c5nc6cc(C(=N)NC(C)C)ccc6[nH]5)cc4)cc3)nc2c1 | 1 (≈ 1.72 µM) | 1 (≈ 1.72 µM) | 0.5 (≈ 0.861 µM) | 0.12 (≈ 0.207 µM) | 0.25 (≈ 0.43 µM) | 0.25 (≈ 0.43 µM) | 0.5 (≈ 0.861 µM) | 0.25 (≈ 0.43 µM) | 0.25 (≈ 0.43 µM) | 0.25 (≈ 0.43 µM) | 0.5 (≈ 0.861 µM) | 0.5 (≈ 0.861 µM)
CC(C)NC(=N)c1ccc2[nH]c(-c3ccc(Sc4ccc(-c5nc6cc(C(=N)NC(C)C)ccc6[nH]5)cc4)cc3)nc2c1 | > 32 | 32 (≈ 54.5 µM) | 16 (≈ 27.3 µM) | 8 (≈ 13.6 µM) | 16 (≈ 27.3 µM) | > 32 | > 32 | 16 (≈ 27.3 µM) | 16 (≈ 27.3 µM) | 8 (≈ 13.6 µM) | > 32 | > 32
CC(C)NC(=N)c1ccc2[nH]c(-c3ccc4c(c3)Cc3ccc(-c5nc6cc(C(=N)NC(C)C)ccc6[nH]5)cc3S4)nc2c1 | 16 (≈ 26.7 µM) | 8 (≈ 13.4 µM) | 2 (≈ 3.34 µM) | 2 (≈ 3.34 µM) | 0.5 (≈ 0.835 µM) | 0.12 (≈ 0.2 µM) | 16 (≈ 26.7 µM) | 0.5 (≈ 0.835 µM) | 1 (≈ 1.67 µM) | 1 (≈ 1.67 µM) | > 32 | 0.5 (≈ 0.835 µM)
CC(C)NC(=N)c1ccc2[nH]c(-c3ccc(Cc4ccc(-c5nc6cc(C(=N)NC(C)C)ccc6[nH]5)cc4)cc3)nc2c1 | 1 (≈ 1.76 µM) | 1 (≈ 1.76 µM) | 0.25 (≈ 0.44 µM) | 0.12 (≈ 0.211 µM) | 0.25 (≈ 0.44 µM) | < 0.06 | 0.25 (≈ 0.44 µM) | 0.12 (≈ 0.211 µM) | 0.25 (≈ 0.44 µM) | 0.25 (≈ 0.44 µM) | 1 (≈ 1.76 µM) | 1 (≈ 1.76 µM)
CC(C)NC(=N)c1ccc2[nH]c(-c3ccc([C@@H]4C[C@H]4c4ccc(-c5nc6cc(C(=N)NC(C)C)ccc6[nH]5)cc4)cc3)nc2c1 | 1 (≈ 1.68 µM) | 0.5 (≈ 0.841 µM) | 0.25 (≈ 0.42 µM) | ≤ 0.06 | 0.12 (≈ 0.202 µM) | ≤ 0.06 | 0.5 (≈ 0.841 µM) | 0.12 (≈ 0.202 µM) | 0.12 (≈ 0.202 µM) | 0.12 (≈ 0.202 µM) | 0.5 (≈ 0.841 µM) | 0.25 (≈ 0.42 µM)
CC(C)NC(=N)c1ccc2[nH]c(-c3ccc(CCc4ccc(-c5nc6cc(C(=N)NC(C)C)ccc6[nH]5)cc4)cc3)nc2c1 | 0.25 (≈ 0.429 µM) | 0.5 (≈ 0.858 µM) | 0.25 (≈ 0.429 µM) | < 0.06 | 0.12 (≈ 0.206 µM) | < 0.06 | 0.25 (≈ 0.429 µM) | 0.12 (≈ 0.206 µM) | 0.12 (≈ 0.206 µM) | 0.12 (≈ 0.206 µM) | 0.5 (≈ 0.858 µM) | 0.25 (≈ 0.429 µM)
CC(C)NC(=N)c1ccc2[nH]c(-c3ccc(NS(=O)(=O)c4ccc(-c5nc6cc(C(=N)NC(C)C)ccc6[nH]5)cc4)cc3)nc2c1 | > 32 | 16 (≈ 25.2 µM) | 16 (≈ 25.2 µM) | 2 (≈ 3.16 µM) | 4 (≈ 6.31 µM) | 1 (≈ 1.58 µM) | 2 (≈ 3.16 µM) | 4 (≈ 6.31 µM) | 2 (≈ 3.16 µM) | 2 (≈ 3.16 µM) | 2 (≈ 3.16 µM) | 4 (≈ 6.31 µM)
CC(C)NC(=N)c1ccc2[nH]c(-c3ccc(COc4ccc(-c5nc6cc(C(=N)NC(C)C)ccc6[nH]5)cc4)cc3)nc2c1 | 1 (≈ 1.71 µM) | 4 (≈ 6.84 µM) | 0.5 (≈ 0.855 µM) | ≤ 0.06 | 0.25 (≈ 0.428 µM) | ≤ 0.06 | 1 (≈ 1.71 µM) | 0.12 (≈ 0.205 µM) | 0.12 (≈ 0.205 µM) | 0.12 (≈ 0.205 µM) | 32 (≈ 54.7 µM) | 16 (≈ 27.4 µM)
O=C(O)c1cn(C2CC2)c2cc(N3CCNCC3)c(F)cc2c1=O [CIPROFLOXACIN] | 0.5 (≈ 1.51 µM) | 8 (≈ 24.1 µM) | ≤ 0.12 | ≤ 0.12 | ≤ 0.12 | – | 0.5 (≈ 1.51 µM) | > 32 | ≤ 0.12 | ≤ 0.12 | 0.5 (≈ 1.51 µM) | –
CN[C@H](CC(C)C)C(=O)N[C@H]1C(=O)N[C@@H](CC(N)=O)C(=O)N[C@H]2C(=O)N[C@H]3C(=O)N[C@H](C(=O)N[C@H](C(=O)O)c4cc(O)cc(O)c4-c4cc3ccc4O)[C@H](O)c3ccc(c(Cl)c3)Oc3cc2cc(c3O[C@@H]2O[C@H](CO)[C@@H](O)[C@H](O)[C@H]2O[C@H]2C[C@](C)(N)[C@H](O)[C@H](C)O2)Oc2ccc(cc2Cl)[C@H]1O [VANCOMYCIN] | – | – | – | – | – | 1 (≈ 0.69 µM) | > 32 | > 64 | 0.12 (≈ 0.0828 µM) | – | 4 (≈ 2.76 µM) | 0.12 (≈ 0.0828 µM)
